Laboratory results reported in ChEMBL document CHEMBL3627698, “Selective inhibition of PARP10 using a chemical genetics strategy” (Bioorg Med Chem Lett, 2015).

Tests used:
[1] = biological target: Poly [ADP-ribose] polymerase 1 (Homo sapiens, UniProt P09874); assay: Inhibition of PARP1 (unknown origin) by fluorescence analysis
[2] = biological target: T1, Protein mono-ADP-ribosyltransferase PARP10 (Homo sapiens, UniProt Q53GL7); assay: Inhibition of PARP-10 (unknown origin) mediated ADP-ribosylation of SRPK2 by fluorescence analysis using 3 uM SRPK2 as a substrate
T1 sequence (Q53GL7 whole entry): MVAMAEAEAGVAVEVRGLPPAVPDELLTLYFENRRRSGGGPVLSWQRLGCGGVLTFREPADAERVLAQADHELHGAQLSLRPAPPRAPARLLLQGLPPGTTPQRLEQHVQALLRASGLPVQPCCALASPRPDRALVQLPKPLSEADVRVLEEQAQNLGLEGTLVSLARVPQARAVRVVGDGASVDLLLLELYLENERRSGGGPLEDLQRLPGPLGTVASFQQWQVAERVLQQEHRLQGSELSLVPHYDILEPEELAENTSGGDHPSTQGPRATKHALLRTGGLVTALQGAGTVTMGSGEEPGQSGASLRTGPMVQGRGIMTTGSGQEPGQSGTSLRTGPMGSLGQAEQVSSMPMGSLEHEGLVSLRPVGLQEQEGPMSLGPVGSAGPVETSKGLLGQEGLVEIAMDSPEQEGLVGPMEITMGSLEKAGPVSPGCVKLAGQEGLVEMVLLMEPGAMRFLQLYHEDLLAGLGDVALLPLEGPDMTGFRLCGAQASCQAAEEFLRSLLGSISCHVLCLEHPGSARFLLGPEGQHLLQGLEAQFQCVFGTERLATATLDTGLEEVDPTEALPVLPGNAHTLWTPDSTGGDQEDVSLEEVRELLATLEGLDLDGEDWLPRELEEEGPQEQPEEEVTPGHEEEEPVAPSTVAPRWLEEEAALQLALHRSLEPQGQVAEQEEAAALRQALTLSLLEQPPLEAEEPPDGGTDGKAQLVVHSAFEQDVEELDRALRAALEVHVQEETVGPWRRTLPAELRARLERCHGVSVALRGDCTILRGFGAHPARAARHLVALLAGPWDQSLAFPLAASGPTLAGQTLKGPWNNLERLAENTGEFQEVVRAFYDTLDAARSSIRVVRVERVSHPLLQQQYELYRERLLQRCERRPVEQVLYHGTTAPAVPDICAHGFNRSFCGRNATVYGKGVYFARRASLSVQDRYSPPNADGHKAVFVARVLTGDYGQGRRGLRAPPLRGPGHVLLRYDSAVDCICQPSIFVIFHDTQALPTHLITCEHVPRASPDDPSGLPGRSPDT

[3] = biological target: Protein mono-ADP-ribosyltransferase PARP10 (Homo sapiens, UniProt Q53GL7, L926G); assay: Inhibition of PARP-10 L926G mutant (unknown origin) mediated ADP-ribosylation of SRPK2 by fluorescence analysis using 3 uM SRPK2 as a substrate
Protein mono-ADP-ribosyltransferase PARP10 (Homo sapiens, UniProt Q53GL7, L926G), sequence (Q53GL7 whole entry L926G): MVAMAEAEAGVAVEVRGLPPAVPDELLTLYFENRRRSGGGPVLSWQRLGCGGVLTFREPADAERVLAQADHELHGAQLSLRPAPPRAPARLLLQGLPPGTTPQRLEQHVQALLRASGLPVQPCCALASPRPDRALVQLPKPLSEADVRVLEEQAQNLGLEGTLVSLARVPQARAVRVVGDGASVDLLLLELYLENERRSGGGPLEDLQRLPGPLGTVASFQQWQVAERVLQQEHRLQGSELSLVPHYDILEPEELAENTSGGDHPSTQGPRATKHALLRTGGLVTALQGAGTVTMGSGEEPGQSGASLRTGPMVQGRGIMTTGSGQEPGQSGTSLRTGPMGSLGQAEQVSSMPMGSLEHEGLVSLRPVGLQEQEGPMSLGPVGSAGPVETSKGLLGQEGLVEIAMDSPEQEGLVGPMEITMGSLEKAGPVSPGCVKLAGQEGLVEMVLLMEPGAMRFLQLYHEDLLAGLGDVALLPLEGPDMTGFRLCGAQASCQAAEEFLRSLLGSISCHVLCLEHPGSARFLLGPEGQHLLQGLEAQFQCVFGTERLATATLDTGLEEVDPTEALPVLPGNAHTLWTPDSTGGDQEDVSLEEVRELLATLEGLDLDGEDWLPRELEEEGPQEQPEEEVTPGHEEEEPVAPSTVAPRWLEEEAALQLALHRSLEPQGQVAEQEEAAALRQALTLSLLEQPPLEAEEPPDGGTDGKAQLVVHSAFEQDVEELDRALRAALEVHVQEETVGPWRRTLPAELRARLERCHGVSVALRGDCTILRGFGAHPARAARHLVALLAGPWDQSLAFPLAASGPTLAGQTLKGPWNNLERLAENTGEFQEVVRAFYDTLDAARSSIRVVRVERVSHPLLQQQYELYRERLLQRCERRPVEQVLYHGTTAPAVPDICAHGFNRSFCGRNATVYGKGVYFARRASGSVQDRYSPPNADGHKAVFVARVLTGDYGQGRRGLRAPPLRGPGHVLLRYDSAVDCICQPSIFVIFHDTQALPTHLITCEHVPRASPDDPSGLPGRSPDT

Poly [ADP-ribose] polymerase 1, sequence (P09874 whole entry): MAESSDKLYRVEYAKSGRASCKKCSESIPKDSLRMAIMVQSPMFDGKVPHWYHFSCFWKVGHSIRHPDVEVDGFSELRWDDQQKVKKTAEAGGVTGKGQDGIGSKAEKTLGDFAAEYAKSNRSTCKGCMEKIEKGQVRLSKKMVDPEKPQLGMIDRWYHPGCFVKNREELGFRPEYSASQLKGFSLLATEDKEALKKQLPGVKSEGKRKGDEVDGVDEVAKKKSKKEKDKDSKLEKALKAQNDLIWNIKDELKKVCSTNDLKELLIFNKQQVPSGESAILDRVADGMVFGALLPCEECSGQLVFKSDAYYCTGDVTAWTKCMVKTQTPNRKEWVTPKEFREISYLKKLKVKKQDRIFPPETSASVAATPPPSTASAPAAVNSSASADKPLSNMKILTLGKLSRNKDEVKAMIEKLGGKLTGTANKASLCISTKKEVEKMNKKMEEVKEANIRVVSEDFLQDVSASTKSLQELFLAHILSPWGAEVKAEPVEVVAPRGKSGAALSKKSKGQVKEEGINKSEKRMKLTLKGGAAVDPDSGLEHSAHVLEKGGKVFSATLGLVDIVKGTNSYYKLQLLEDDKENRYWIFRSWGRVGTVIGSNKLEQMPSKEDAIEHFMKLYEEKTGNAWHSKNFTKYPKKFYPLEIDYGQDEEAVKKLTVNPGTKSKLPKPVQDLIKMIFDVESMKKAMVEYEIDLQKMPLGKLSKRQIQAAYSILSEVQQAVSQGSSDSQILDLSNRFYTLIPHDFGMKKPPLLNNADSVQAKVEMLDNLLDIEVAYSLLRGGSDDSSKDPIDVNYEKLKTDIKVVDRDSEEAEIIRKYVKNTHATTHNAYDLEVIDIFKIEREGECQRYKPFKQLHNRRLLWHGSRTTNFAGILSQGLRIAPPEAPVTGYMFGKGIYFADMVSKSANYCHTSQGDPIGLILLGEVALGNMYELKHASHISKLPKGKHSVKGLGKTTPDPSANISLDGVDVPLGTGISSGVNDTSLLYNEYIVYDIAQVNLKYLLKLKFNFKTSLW

Row | Compound | IC50 [1] | IC50 [2] | IC50 [3]
1 | COc1ccc2c(c1)C(=O)NCC2 | > 100 µM | > 100 µM | 172 µM
2 | O=C1NCCc2ccc(C(F)(F)F)cc21 | > 100 µM | > 100 µM | 65.5 µM
3 | Cc1ccc2c(c1)C(=O)NCC2 | > 100 µM | > 100 µM | 112 µM
4 | O=C1NCCc2ccc(O)cc21 | – | – | > 30 µM
5 | O=C1NCCc2ccc(Br)cc21 | > 100 µM | > 100 µM | 8.6 µM
6 | O=C1NCCc2ccc(Cl)cc21 | 100 µM | > 100 µM | 16.2 µM
